{
  "source": "PubChem BioAssay AID1259407",
  "about": "(Chemical Carcinogenesis Research Information System (CCRIS), 2018)",
  "system": "CCRIS mutagenicity, Ames/micronucleus/aberration tests",
  "assay": "CCRIS mutagenicity studies",
  "note": "Active and inactive are the calls of the source. How the calls were made is not given here.",
  "data": [
    {"smiles": "Nc1ccc(Br)cc1", "values": [
      {"measurement": "mutagenic call", "setting": "End Point: IN VITRO MICRONUCLEUS, Test System: CHL/IU CELLS, Metabolic Activation: RAT, LIVER, S-9, PHENOBARBITAL AND 5,6-BENZOFLAVONE", "value": "active; positive"},
      {"measurement": "mutagenic call", "setting": "Test System: AMES SALMONELLA TYPHIMURIUM, Strain/Indicator: TA97, Metabolic Activation: HAMSTER, LIVER, S-9, AROCLOR 1254 (10%), Method: PREINCUBATION", "value": "inactive; negative"},
      {"measurement": "mutagenic call", "setting": "Test System: AMES SALMONELLA TYPHIMURIUM, Strain/Indicator: TA97, Metabolic Activation: HAMSTER, LIVER, S-9, AROCLOR 1254 (30%), Method: PREINCUBATION", "value": "inactive; negative"},
      {"measurement": "mutagenic call", "setting": "Test System: AMES SALMONELLA TYPHIMURIUM, Strain/Indicator: TA97, Metabolic Activation: NONE, Method: PREINCUBATION", "value": "inactive; negative"},
      {"measurement": "mutagenic call", "setting": "Test System: AMES SALMONELLA TYPHIMURIUM, Strain/Indicator: TA97, Metabolic Activation: RAT, LIVER, S-9, AROCLOR 1254 (10%), Method: PREINCUBATION", "value": "inactive; negative"},
      {"measurement": "mutagenic call", "setting": "Test System: AMES SALMONELLA TYPHIMURIUM, Strain/Indicator: TA97, Metabolic Activation: RAT, LIVER, S-9, AROCLOR 1254 (30%), Method: PREINCUBATION", "value": "inactive; negative"},
      {"measurement": "mutagenic call", "setting": "Test System: AMES SALMONELLA TYPHIMURIUM, Strain/Indicator: TA98, Metabolic Activation: HAMSTER, LIVER, S-9, AROCLOR 1254 (10%), Method: PREINCUBATION", "value": "inactive; negative"},
      {"measurement": "mutagenic call", "setting": "Test System: AMES SALMONELLA TYPHIMURIUM, Strain/Indicator: TA98, Metabolic Activation: HAMSTER, LIVER, S-9, AROCLOR 1254 (30%), Method: PREINCUBATION", "value": "inactive; negative"},
      {"measurement": "mutagenic call", "setting": "Test System: AMES SALMONELLA TYPHIMURIUM, Strain/Indicator: TA98, Metabolic Activation: NONE, Method: PREINCUBATION", "value": "inactive; negative"},
      {"measurement": "mutagenic call", "setting": "Test System: AMES SALMONELLA TYPHIMURIUM, Strain/Indicator: TA98, Metabolic Activation: RAT, LIVER, S-9, AROCLOR 1254 (10%), Method: PREINCUBATION", "value": "inactive; negative"},
      {"measurement": "mutagenic call", "setting": "Test System: AMES SALMONELLA TYPHIMURIUM, Strain/Indicator: TA98, Metabolic Activation: RAT, LIVER, S-9, AROCLOR 1254 (30%), Method: PREINCUBATION", "value": "inactive; negative"},
      {"measurement": "mutagenic call", "setting": "Test System: AMES SALMONELLA TYPHIMURIUM, Strain/Indicator: TA100, Metabolic Activation: HAMSTER, LIVER, S-9, AROCLOR 1254 (10%), Method: PREINCUBATION", "value": "inactive; negative"},
      {"measurement": "mutagenic call", "setting": "Test System: AMES SALMONELLA TYPHIMURIUM, Strain/Indicator: TA100, Metabolic Activation: HAMSTER, LIVER, S-9, AROCLOR 1254 (30%), Method: PREINCUBATION", "value": "inactive; negative"},
      {"measurement": "mutagenic call", "setting": "Test System: AMES SALMONELLA TYPHIMURIUM, Strain/Indicator: TA100, Metabolic Activation: NONE, Method: PREINCUBATION", "value": "inactive; negative"},
      {"measurement": "mutagenic call", "setting": "Test System: AMES SALMONELLA TYPHIMURIUM, Strain/Indicator: TA100, Metabolic Activation: RAT, LIVER, S-9, AROCLOR 1254 (10%), Method: PREINCUBATION", "value": "inactive; negative"},
      {"measurement": "mutagenic call", "setting": "Test System: AMES SALMONELLA TYPHIMURIUM, Strain/Indicator: TA100, Metabolic Activation: RAT, LIVER, S-9, AROCLOR 1254 (30%), Method: PREINCUBATION", "value": "inactive; negative"},
      {"measurement": "mutagenic call", "setting": "Test System: AMES SALMONELLA TYPHIMURIUM, Strain/Indicator: TA1535, Metabolic Activation: HAMSTER, LIVER, S-9, AROCLOR 1254 (10%), Method: PREINCUBATION", "value": "inactive; negative"},
      {"measurement": "mutagenic call", "setting": "Test System: AMES SALMONELLA TYPHIMURIUM, Strain/Indicator: TA1535, Metabolic Activation: HAMSTER, LIVER, S-9, AROCLOR 1254 (30%), Method: PREINCUBATION", "value": "inactive; negative"},
      {"measurement": "mutagenic call", "setting": "Test System: AMES SALMONELLA TYPHIMURIUM, Strain/Indicator: TA1535, Metabolic Activation: NONE, Method: PREINCUBATION", "value": "inactive; negative"},
      {"measurement": "mutagenic call", "setting": "Test System: AMES SALMONELLA TYPHIMURIUM, Strain/Indicator: TA1535, Metabolic Activation: RAT, LIVER, S-9, AROCLOR 1254 (10%), Method: PREINCUBATION", "value": "inactive; negative"},
      {"measurement": "mutagenic call", "setting": "Test System: AMES SALMONELLA TYPHIMURIUM, Strain/Indicator: TA1535, Metabolic Activation: RAT, LIVER, S-9, AROCLOR 1254 (30%), Method: PREINCUBATION", "value": "inactive; negative"},
      {"measurement": "mutagenic call", "setting": "Test System: E. COLI, Strain/Indicator: WP2 UVRA, Metabolic Activation: NONE, Method: FLUCTUATION TEST", "value": "inactive; negative"}
    ]}
  ]
}
